Experimental data reported in paper PMC10526274, “Epithelial-Immune Cell Crosstalk Determines the Activation of Immune Cells In Vitro by the Human Cathelicidin LL-37 at Low Physiological Concentrations” (Biomolecules, 2023).
“And” between values parts separate entries of the source, which are not always exact repeats. Equal values may be shown once.

Tested on: Caco-2/moDCs co-culture
Assay: Multiplex xMAP cytokine levels, Caco-2/moDCs co-culture stimulated with LL-37
Format: cell-based, human
Conditions: moDCs/Caco-2 co-culture, 1 µM LL-37, 24 h, n=2
Procedure: Caco-2 cell line (ATCC HTB-37) was cultured in a humidified CO2-incubator (5% CO2, 37 °C) in the complete DMEM/F12 (1:1) medium (Gibco, Waltham, MA, USA) containing 10% fetal bovine serum (FBS, Gibco) and 1X antibiotic–antimycotic solution (Gibco). To stabilize the cell phenotype, Caco-2 cells have been subcultivated three times before seeding on the filter supports. Then, Caco-2 cells were seeded at a density of 2 × 10^5 cells/cm^2 onto 24-well Millicell cell culture inserts (PC, 0.4-μm pore size, 0.6 cm^2 surface area, cat. #PIHP01250) (Millipore, Burlington, MA, USA), precoated with 0.2% bovine gelatin (Sigma-Aldrich, Saint Louis, MO, USA). After seeding, Caco-2 cells were grown in the same complete medium with re-feeding every 2–3 days until polarization of the monolayer occurred. The functional polarity of the monolayers was developed when transepithelial electrical resistance (TEER) between the apical and basolateral surfaces of the monolayers reached […] as measured by the electrical resistance system Millicell-ERS Voltohmmeter (Millipore, Burlington, MA, USA). Grown cell monolayers were used in transport and cytokine production experiments between the 21st and 29th days.
Peripheral blood mononuclear cells (PBMCs) from a healthy donor were purchased from the American Type Culture Collection (ATCC PCS-800-011). Blood monocytes were isolated from PBMCs by plastic adhesion. Mature monocyte-derived dendritic cells (moDCs) were generated in vitro from peripheral blood monocytes, according to Nair et al.. Briefly, monocytes were cultured in a humidified CO2-incubator (5% CO2, 37 °C) in the complete RPMI-1640 medium (Gibco) with 10% FBS, antibiotics, and supplemented with a cytokine cocktail containing 500 U/mL rhIL-4 and 800 U/mL rhGM-CSF (both Sci-Store, Moscow, Russia). On the third day, the medium was replaced by the same fresh medium with FBS, antibiotics, and the cytokine cocktail. Induction of maturation of the immature monocyte-derived dendritic cells was performed on the 5th day by replacing the medium with the complete RPMI-1640 medium (Gibco) with 10% FBS and antibiotics, supplemented with a cytokine cocktail containing 500 U/mL rhIL-4, 800 U/mL rhGM-CSF (both Sci-Store, Moscow, Russia), and 100 U/mL rhTNF-α (Sigma-Aldrich), and subjected to subsequent incubation of the culture for 4 more days.
Primary blood monocytes, moDCs, and NKT cells were seeded in 600 µL of complete RPMI-1640 with 10% Human AB serum (Capricorn Scientific, Ebsdorfergrund, Germany) and supplemented with 1X antibiotic–antimycotic solution into the wells of 24-well plates at a density of 3–7 × 10^5 cells/well 24 h before the experiment. Then, 24 h later, the medium in each well was replaced by the same medium with 1 µM of LL-37 for the sample wells or fresh medium alone for the control wells, and the permeable inserts with the Caco-2 monolayer with TEER > 400 Ω × cm^2, containing 400 μL of the complete medium in their apical chamber, were immediately placed into the appropriate wells. Also, inserts with the Caco-2 monolayer were placed in cell-free wells of 24-well plates in the same complete RPMI-1640 medium with or without 1 µM of LL-37 as controls. Cells were kept in a CO2-incubator (5% CO2, 37 °C) for another 24 h. Then, culture medium from each well was collected, centrifuged, and frozen at −70 °C.
To quantitatively evaluate a broad spectrum of analytes secreted by human cell cultures at the protein level, multiplex xMAP technology was used. […]

What does the source list for “LL-37: the only human cathelicidin, host defense antimicrobial peptide of 37 a.a. residues, produced by solid-phase peptide synthesis”?
IL-2 level (control 0.75): 1.12 pg/mL; FLT-3L level (control 0.87): 0.93 pg/mL; IL-3 level (control 0.91): 0.91 pg/mL; IFNg level (control 2): 2.28 pg/mL; IL-18 level (control 2.49): 1.42 pg/mL; IL-15 level (control 3.19): 3.42 pg/mL; IL-4 level (control 4.19): 6.58 pg/mL; IL-5 level (control 4.46): 2.93 pg/mL; TGF-a level (control 5.8): 5.22 pg/mL; IL-1b level (control 5.83): 5.83 pg/mL; EGF level (control 6.26): 6.51 pg/mL; IL-9 level (control 7.45): 7.45 pg/mL; IFNa2 level (control 8.64): 10.16 pg/mL; TNFb level (control 9.34): 15.39 pg/mL; GM-CSF level (control 10.7): 8.75 pg/mL; IL-1RA level (control 11.1): 13.57 pg/mL; G-CSF level (control 16.25): 14.89 pg/mL; Fractalkine level (control 22.95): 25.92 pg/mL; IL-6 level (control 23.82): 26.83 pg/mL; IL-22 level (control 26.11, p = 0.10): 37 pg/mL and 37.22 pg/mL; TNFa level (control 41.39): 44.26 pg/mL; IL-13 level (control 43.59): 50.71 pg/mL; FGF-2 level (control 47.27): 47.27 pg/mL; IL-12 (p40) level (control 57.35): 55.01 pg/mL; GROa level (control 60.81): 70.33 pg/mL; IL-27 level (control 63.66): 70.72 pg/mL; PDGF-AB/BB level (control 72.4): 83.52 pg/mL; IL-10 level (control 81.69, p = 0.0035): 52 pg/mL and 52.63 pg/mL; IP-10 level (control 90.92): 118.06 pg/mL; sCD40L level (control 95.47): 95.47 pg/mL; RANTES level (control 142.05): 223.43 pg/mL; M-GSF level (control 168.7): 172.56 pg/mL; PDGF-AA level (control 252.85): 237.55 pg/mL; MCP-3 level (control 376.42): 372.12 pg/mL; VEGFa level (control 723.09): 1786 pg/mL; MIP-1a level (control 1271): 1487 pg/mL; MIP-1b level (control 1340): 1789 pg/mL; MCP-1 level (control 2519): 1925 pg/mL; IL-8 level (control 2799): 3052 pg/mL; MIG level (control 25746): 25834 pg/mL; IL-7 level (control <0.30): <0.30↓ pg/ml; IL-17A level (control <0.70): <0.70↓ pg/ml; IL-1a level (control <1.30): <1.30↓ pg/ml; IL-12 (p70) level (control <1.71): <1.71↓ pg/ml; Eotaxin level (control <2.91): 3.03 pg/mL; IL-17F level (control <12.19): <12.19↓ pg/ml; IL-17E/IL-25 level (control <19.43): <19.43↓ pg/ml; MDC level (control >14590): 6291 pg/mL
